Results reported in patent US10335420B2, “Nanoparticle-based tumor-targeted drug delivery” (The Scripps Research Institute, priority 2010, dated 2019).
Like-named read-outs stand apart in the source and are kept apart here.

Key:
4TO7 tumors = assay: 4TO7 tumor growth in mice treated with Leg-NP-CDDO; format: in vivo, BALB/c mice; details: 8 i.v. injections
Protocol: In vivo tumor studies. 4TO7 (5×10^3) cells or MMTV-Neu (1×10^4) primary tumor cells were injected orthotopically into female BALB/c or FVB/NJ mice, respectively. NPs in 200 μl of PBS (about 1.36×10^13 particles) were administered i.v. and tumor dimensions measured using digital microcalipers. Tumor volume was calculated using the formula [(a^2×b)/2], where ‘a’ is the larger of two perpendicular diameters. For recurrence studies, primary tumors were surgically removed and mice re-challenged orthotopically in the contralateral mammary fat pad. Mice were vaccinated 3 times orally at 1 week intervals by gavage with attenuated salmonella typhimuirum (1×10^8 CFU per mouse) transduced with either pNeuTm (provided by Wei-Zen Wei, Karmanos Cancer Center, Detroit, Mich., USA) or empty vector.
Leg-NP-CDDO suppresses growth of murine breast tumors. To evaluate the in vivo effects of Leg-NP-CDDO, BALB/c mice were orthotopically challenged with about 5×10^3 4TO7 tumor cells and 4 days later, treated them with 8 i.v. injections of Leg-NP-CDDO or controls (FIG. 7A).

[1] = format: in vivo; details: 5 mg/kg doxorubicin i.v.
Protocol: The dose of doxorubicin for all groups was 5 mg/kg.
Female BALB/c mice were injected orthotopically with 4TO7 breast tumor cells. Tumors were allowed to establish and reach a size of approximately 500 mm^3 prior to treatment. […] Doxorubicin was administered at about 5 mg/kg in 200 μl of PBS for all groups; n=5 mice per group.

4TO7 orthotopic tumors = assay: Doxorubicin biodistribution in tumor-bearing mice by fluorescence microscopy; format: in vivo; details: two i.v. injections, about 24 h after the last injection
Protocol: Doxorubicin was also loaded into RR-11a^− NPs (NP-Dox) as a control. […] Data represent means±s.e.m. The percentage of the drug uptake concentration was determined by comparing the MFI of RDZ-218, NP-Dox, and Free Dox-treated cells with that of serially diluted doxorubicin; see FIG. 2b. […] Data is shown relative to untreated cells (Control); n=3 wells per group. Data represent means±s.e.m. *p<0.05, **p<0.005. 4TO7 cells were injected into the inguinal mammary fat pad of female BALB/c mice. Tumors were allowed to establish for about 5 d, to a size of approximately 500 mm^3, after which mice were given two i.v. injections with RDZ-218, NP-Dox or Free Dox. Mice were sacrificed about 24 h after the last injection and tissues were isolated and immediately analyzed by fluorescence microscopy to detect distribution of doxorubicin; see FIG. 2d. Tissue sections were also stained with DAPI to visualize cell nuclei; n=2 mice per group; scale bars, 100 μm.

Row | SMILES | primary tumor growth (4TO7 tumors) | dose required for effective Stat3 inhibition (STAT-3) [nmol/L] | number of mice surviving, out of a total of 5 ([1]; after treatment 0) | number of mice surviving, out of a total of 5 ([1]; after treatment 1, 24-hour intervals) | doxorubicin fluorescence in tumors (4TO7 orthotopic tumors)
1 | CC1(C)CC[C@]2(C(=O)n3ccnc3)CC[C@]3(C)[C@H](C(=O)C=C4[C@@]5(C)C=C(C#N)C(=O)C(C)(C)[C@@H]5CC[C@]43C)[C@@H]2C1 [CDDO-Im, 1-[2-cyano-3-,12-dioxooleana-1,9(11)-dien-28-oyl]imidazole] | markedly less effective | 100 | – | – | –
2 | COc1cccc2c1C(=O)c1c(O)c3c(c(O)c1C2=O)C[C@@](O)(C(=O)CO)C[C@@H]3O[C@H]1C[C@H](N)[C@H](O)[C@H](C)O1 [Free Dox, doxorubicin] | – | – | 5/5 | 0/5 | strikingly reduced or punctate
